Measured values from patent US20250129104A1, “7H-PYRROLO[2,3-D]PYRIMIDINES AND PREPARATION AND USES THEREOF” (BioSplice Therapeutics, Inc., priority 2021, published 2025).

What follows are compounds tested against recombinant DYRK1A kinase (Homo sapiens (Human), UniProt Q13627) (assay: DYRK1A kinase assay (Ser/Thr 18 peptide Z-lyte FRET assay)). Settings: DYRK1A kinase activity; 15 μM ATP, 1 h room temperature; method text calls the value IC50.
Assay type: biochemical
How it was run: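 FRET Z-lyte read-out (coumarin/fluorescein ratio, % phosphorylation) after 1 h development; IC50 from non-linear curve fit. Reaction: 0.25 μg/mL recombinant human DYRK1A, Ser/Thr 18 peptide 4 μM, ATP 15 μM, compound in 11-point 1:3 series from 10 μM, 1 h, room temperature, duplicate wells.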
`Cc1nc2ccc(-c3c[nH]c4nc(NCC(C)(C)F)ncc34)cc2s1` [Compound 24, N-(2-Fluoro-2-methylpropyl)-5-(2-methylbenzo[d]thiazol-6-yl)-7H-pyrrolo [2,3-d]pyrimidin-2-amine] gave an EC50 of 14.5 nM.
Compound `COc1nc(N[C@@H]2[C@@H]3COC[C@@H]32)nc2[nH]cc(-c3ccc4nnn(C)c4c3)c12` [Compound 3127, N-((1R,5S,6s)-3-Oxabicyclo[3.1.0]hexan-6-yl)-4-methoxy-5-(1-methyl-1H-benzo[d][1,2,3]triazol-6-yl)-7H-pyrrolo[2,3-d]pyrimidin-2-amine] has an EC50 of 1.4 nM.
Work on `COc1nc(N[C@@H]2[C@@H]3COC[C@@H]32)nc2[nH]cc(-c3ccc4nnn(C)c4c3)c12` [Compound 3128, N-((1R,5S,6r)-3-Oxabicyclo[3.1.0]hexan-6-yl)-4-methoxy-5-(1-methyl-1H-benzo[d][1,2,3]triazol-6-yl)-7H-pyrrolo[2,3-d]pyrimidin-2-amine] yielded an EC50 of 0.6 nM.
`COc1nc(NC2CCC3(CC2)COC3)nc2[nH]cc(-c3ccc4nnn(C)c4c3)c12` [Compound 3133, 4-Methoxy-5-(1-methyl-1H-benzo[d][1,2,3]triazol-6-yl)-N-(2-oxaspiro[3.5]nonan-7-yl)-7H-pyrrolo[2,3-d]pyrimidin-2-amine] gave an EC50 of 1.1 nM.
`C[C@]1(O)CC[C@@H](Nc2ncc3c(-c4ccc5nccn5n4)c[nH]c3n2)CC1` [Compound 3224, (1s,4s)-4-((5-(Imidazo[1,2-b]pyridazin-6-yl)-7H-pyrrolo[2,3-d]pyrimidin-2-yl)amino)-1-methylcyclohexan-1-ol] gave an EC50 of 2.6 nM.
`CO[C@H]1CC[C@H](Nc2ncc3c(-c4ccn5nccc5c4)c[nH]c3n2)CC1` [Compound 3277, N-(trans-4-Methoxycyclohexyl)-5-(pyrazolo[1,5-a]pyridin-5-yl)-7H-pyrrolo[2,3-d]pyrimidin-2-amine] was tested, and the EC50 was 1.9 nM.
`FC(F)O[C@H]1CC[C@H](Nc2ncc3c(-c4ccn5nccc5c4)c[nH]c3n2)CC1` [Compound 3278, N-(trans-4-(Difluoromethoxy)cyclohexyl)-5-(pyrazolo[1,5-a]pyridin-5-yl)-7H-pyrrolo[2,3-d]pyrimidin-2-amine] gave an EC50 of 19.2 nM.
`COc1nc(N)nc2[nH]cc(-c3ccn4nccc4c3)c12` [Compound 3291, 4-methoxy-5-(pyrazolo[1,5-a]pyridin-5-yl)-7H-pyrrolo[2,3-d]pyrimidin-2-amine] was tested, and the EC50 was 1.1 nM.
In the case of `COc1nc(N[C@H]2CC[C@H](OC)CC2)nc2[nH]cc(-c3ccn4nccc4c3)c12` [Compound 3310, 4-Methoxy-N-(trans-4-methoxycyclohexyl)-5-(pyrazolo[1,5-a]pyridin-5-yl)-7H-pyrrolo[2,3-d]pyrimidin-2-amine], the EC50 is reported as 230 nM.
Work on `[2H]C([2H])([2H])Oc1nc(N[C@H]2CC[C@@H](OC)CC2)nc2[nH]cc(-c3ccn4nccc4c3)c12` [Compound 3311, 4-(Methoxy-d3)—N-(cis-4-methoxycyclohexyl)-5-(pyrazolo[1,5-a]pyridin-5-yl)-7H-pyrrolo[2,3-d]pyrimidin-2-amine] yielded an EC50 of 1.4 nM.
`COc1nc(NC2CC3(COC3)C2)nc2[nH]cc(-c3ccn4nccc4c3)c12` [Compound 3321, 4-Methoxy-5-(pyrazolo[1,5-a]pyridin-5-yl)-N-(2-oxaspiro[3.3]heptan-6-yl)-7H-pyrrolo[2,3-d]pyrimidin-2-amine] showed an EC50 of 37.5 nM.
Work on `COc1nc(NC2CCC3(CC2)COC3)nc2[nH]cc(-c3ccn4nccc4c3)c12` [Compound 3326, 4-Methoxy-5-(pyrazolo[1,5-a]pyridin-5-yl)-N-(2-oxaspiro[3.5]nonan-7-yl)-7H-pyrrolo[2,3-d]pyrimidin-2-amine] yielded an EC50 of 1.6 nM.
With `COc1nc(N[C@H]2CC[C@@H](OC)CC2)nc2[nH]cc(-c3ccn4ncnc4c3)c12` [Compound 3384, 5-([1,2,4]Triazolo[1,5-a]pyridin-7-yl)-4-methoxy-N-(cis-4-methoxycyclohexyl)-7H-pyrrolo[2,3-d]pyrimidin-2-amine] the EC50 was 1.2 nM.
Compound `CO[C@H]1CC[C@H](Nc2ncc3c(-c4ccn5nccc5n4)c[nH]c3n2)CC1` [Compound 3420, N-(trans-4-Methoxycyclohexyl)-5-(pyrazolo[1,5-a]pyrimidin-5-yl)-7H-pyrrolo[2,3-d]pyrimidin-2-amine] has an EC50 of 5.6 nM.
In the case of `FC(F)O[C@H]1CC[C@H](Nc2ncc3c(-c4ccn5nccc5n4)c[nH]c3n2)CC1` [Compound 3421, N-(trans-4-(difluoromethoxy)cyclohexyl)-5-(pyrazolo[1,5-a]pyrimidin-5-yl)-7H-pyrrolo[2,3-d]pyrimidin-2-amine], the EC50 is reported as 28.1 nM.
Work on `C[C@]1(O)CC[C@@H](Nc2ncc3c(-c4ccn5nccc5n4)c[nH]c3n2)CC1` [Compound 3426, (1s,4s)-1-Methyl-4-((5-(pyrazolo[1,5-a]pyrimidin-5-yl)-7H-pyrrolo[2,3-d]pyrimidin-2-yl)amino)cyclohexan-1-ol] yielded an EC50 of 3.2 nM.
Work on `c1cc2nc(-c3c[nH]c4nc(NC5CCC6(CC5)COC6)ncc34)ccn2n1` [Compound 3435, 5-(Pyrazolo[1,5-a]pyrimidin-5-yl)-N-(2-oxaspiro[3.5]nonan-7-yl)-7H-pyrrolo[2,3-d]pyrimidin-2-amine] yielded an EC50 of 2.3 nM.
`CNc1nc(N[C@H]2CC[C@](C)(O)CC2)nc2[nH]cc(-c3ccn4nccc4n3)c12` [Compound 3454, trans-1-methyl-4-((4-(methylamino)-5-(pyrazolo[1,5-a]pyrimidin-5-yl)-7H-pyrrolo[2,3-d]pyrimidin-2-yl)amino)cyclohexan-1-ol] was tested, and the EC50 was 3.4 nM.
Compound `CNc1nc(N2CC3(CO)CCC2CC3)nc2[nH]cc(-c3ccn4nccc4n3)c12` [Compound 3459, (2-(4-(methylamino)-5-(pyrazolo[1,5-a]pyrimidin-5-yl)-7H-pyrrolo[2,3-d]pyrimidin-2-yl)-2-azabicyclo[2.2.2]octan-4-yl)methanol] has an EC50 of 210 nM.
`CNc1nc(NC2CCC3(CC2)COC3)nc2[nH]cc(-c3ccn4nccc4n3)c12` [Compound 3461, N^4-Methyl-5-(pyrazolo[1,5-a]pyrimidin-5-yl)-N^2-(2-oxaspiro[3.5]nonan-7-yl)-7H-pyrrolo[2,3-d]pyrimidine-2,4-diamine] was tested, and the EC50 was 1.9 nM.
For `COc1nc(N[C@H]2CC[C@@H](OC)CC2)nc2[nH]cc(-c3ccc4nccnc4c3)c12` [Compound 3575, 4-Methoxy-N-(cis-4-methoxycyclohexyl)-5-(quinoxalin-6-yl)-7H-pyrrolo[2,3-d]pyrimidin-2-amine], the EC50 was 0.7 nM.
With `COc1nc(NC2CCC3(CC2)COC3)nc2[nH]cc(-c3ccc4nccnc4c3)c12` [Compound 3590, 4-Methoxy-5-(quinoxalin-6-yl)-N-(2-oxaspiro[3.5]nonan-7-yl)-7H-pyrrolo[2,3-d]pyrimidin-2-amine] the EC50 was 1.6 nM.
With `Cn1nnc2ccc(-c3c[nH]c4nc(N[C@H]5CC[C@@](C)(O)CC5)ncc34)cc21` [Compound 3643, (1s,4s)-1-Methyl-4-((5-(1-methyl-1H-benzo[d][1,2,3]triazol-6-yl)-7H-pyrrolo[2,3-d]pyrimidin-2-yl)amino)cyclohexan-1-ol] the EC50 was 0.7 nM.
For “N-(4,4-Difluorocyclohexyl)-4-methoxy-5-(pyrazolo[1,5-a]pyrimidin-5-yl)-7H-pyrrolo[2,3-d]pyrimidin-2-amine [Compound 2223]”, the EC50 was 9.4 nM.
Work on “N-(cis-3-Methoxycyclobutyl)-5-(1-methyl-1H-benzo[d][1,2,3]triazol-6-yl)-7H-pyrrolo[2,3-d]pyrimidin-2-amine [Compound 2051]” yielded an EC50 of 7.8 nM.
“N-(cis-4-(Methoxy-d3)cyclohexyl)-5-(pyrazolo[1,5-a]pyrimidin-5-yl)-7H-pyrrolo[2,3-d]pyrimidin-2-amine [Compound 2221]” gave an EC50 of 3.6 nM.
For “cis-4-((4-Ethoxy-5-(pyrazolo[1,5-a]pyrimidin-5-yl)-7H-pyrrolo[2,3-d]pyrimidin-2-yl)amino)cyclohexan-1-ol [Compound 2225]”, the EC50 was 15.4 nM.

The compounds below were run on Tau phosphorylation at Thr212 (pThr212) (assay: tau phosphorylation assay: phosphoTau (Thr212) AlphaLISA in HEK293T cells transfected with DYRK1A and MAPT). Settings: HEK-293T; HEK293T cells transfected with human DYRK1A and MAPT; 18-24 h compound treatment; read-out: pTau (Thr212) EC50.
Assay type: cell-based
Experimental: Representative compounds were screened using the assay procedure for tau phosphorylation activity described below.
HEK293T cells (ATCC, CRL3216) cultured in DMEM (Thermo Fisher Scientific, 10566024) supplemented with 10% FBS (Corning, 35-011-CV) and Penicillin/Streptomycin (Thermo Fisher Scientific, 15140163) were seeded in a 75 cm^2 flask at 8.1×10^6 cells/flask. The HEK293T cells were then transiently transfected with 5 μg DYRK1A (NM_001396) human untagged clone (OriGene, SC314641) and 2.5 μg MAPT (441 a.a. Tau gene) (NM_005910) human untagged clone (OriGene, TP313312) using Lipofectamine 3000 (Thermo Fisher Scientific, L30000015) and incubated for 20-30 hours in a humidified incubator at 37° C. and 5% CO2. Post-incubation, HEK293T cells transfected with the DYRK1A and MAPT expression vectors were harvested and seeded in BioCoat poly-D lysine coated 96-well plates (Corning, 354461) at 3×10^4 cells/well.
The above synthesized compounds were screened using the cell assay procedure to assess decreased Tau phosphorylation at Thr212 (pThr212) described below.
Each compound was dissolved in DMSO (Sigma-Aldrich, D8418-100 mL) as a 10 mM stock. 10 mM stocks were serially diluted 1:3, 10-point dose-response curve and added to the cells with a final concentration ranging from 20 μM to 1.1 nM. Cell were treated with compounds in duplicate and incubated for 18-24 hours in a humidified incubator at 37° C. and 5% CO2.
Following the overnight compound treatment, cells were lysed with 1× Alpha Surefire Ultra Lysis Buffer (Perkin Elmer, ALSU-LB-100ML) complemented with 1× Halt Phosphatase Inhibitor Cocktail (Thermo Fisher Scientific, 78427) and 1× Halt Protease Inhibitor Cocktail (Thermo Fisher Scientific, 78438). Lysates were spun down at 12,000 g for 10 min to remove any cellular debris and 5 μL of lysates were dispensed into a 384-well Opti-Plate (Perkin Elmer, 6007290) for the measurement of Tau phosphorylation in the phosphoTau (Thr212) AlphaLISA assay. Donor antibody, biotinylated HT7Tau (Thermo Fisher Scientific, MN1000B), and acceptor antibody, pThr212Tau (Thermo Fisher Scientific, 44740G) were both added to the cell lysates at a final concentration of 3 nM and incubated for 1 hour at room temperature. Following incubation of the lysates with the donor and acceptor antibodies, anti-rabbit IgG (Fc specific) AlphaLISA acceptor beads (Perkin Elmer, AL104C) were added at a 10 μg/mL final concentration and incubated for 1 hour at room temperature protected from light. Lastly, AlphaScreen streptavidin donor beads (PerkinElmer, 6760002) were added at 40 μg/mL final concentration and incubated for 1 hour at room temperature protected from light. Plates were read at […], and Em=615 nm on the EnVision Multilabel Plate Reader (Perkin Elmer). PhosphoTau (Thr212) AlphaLISA signal was used to plot, draw the curve fitting, and determine each compound's EC50 in Prism (GraphPad).
For `Cc1nc2ccc(-c3c[nH]c4nc(NCC(C)(C)F)ncc34)cc2s1` [Compound 24, N-(2-Fluoro-2-methylpropyl)-5-(2-methylbenzo[d]thiazol-6-yl)-7H-pyrrolo [2,3-d]pyrimidin-2-amine], the EC50 was 360 nM.
